Cc1ccc2c(c1)C(=O)OC2=O
solubility (mole fraction)
Details	278.15 K	283.15 K	288.15 K	293.15 K	298.15 K	303.15 K	308.15 K	313.15 K	318.15 K
in acetone	0.127	0.15	0.176	0.206	0.236	0.272	0.312	0.356	0.406
in acetonitrile	0.101	0.118	0.141	0.167	0.193	0.224	0.258	0.3	0.343
in cyclohexane	–	0.00152	0.0019	0.00245	0.0031	0.00396	0.00489	0.00591	0.00729
in methyl acetate	0.179	0.206	0.236	0.263	0.289	0.328	0.363	0.41	0.449
in n-butyl acetate	0.0226	0.0267	0.0312	0.0397	0.0473	0.0586	0.0716	0.0858	0.102
in n-heptane	0.00107	0.00142	0.00178	0.00227	0.00284	0.00355	0.00444	0.00556	0.007
in tetrachloromethane	0.00751	0.00871	0.0105	0.0127	0.0157	0.0189	0.0222	0.0265	0.0321
in toluene	0.0651	0.0781	0.0945	0.11	0.133	0.158	0.188	0.225	0.273
